Experimental data: patent US20230234993A1, “COMPOSITION FOR PREVENTING OR TREATING NEUROLOGICAL DISEASES RELATED TO COPPER METABOLISM, COMPRISING MULTI-COPPER OXIDASE PEPTIDE” (NATIONAL MARINE BIODIVERSITY INSTITUTE OF KOREA, priority 2020, published 2023)
Where no end group is shown, it is not given here.

Experiments:
Type in all cases: in vivo
[1] = test system: zebrafish embryos exposed to copper; experiment: Hatching rate under copper overexposure conditions
Procedure: Through hatching rate examination, the activities of CP002 and CP002S were analyzed in zebrafish embryos exposed to copper. Specifically, the development process of fertilized eggs obtained by mating male and female wild-type zebrafish was safely maintained in an incubator. At 24 hours after fertilization, normally grown embryos were dispensed into a 24-well plate by 13 subjects and maintained under copper overexposure conditions. The dispensed subjects were treated with CP002 (5, 10 μM), CP002S (5, 10 μM), DPA (5, 10 μM), or TETA (5, 10 μM). From 48 hours to 52, 56, 60, 72, and 80 hours after fertilization (24 hours after treatment) when hatching started, the number of hatched subjects in each group was examined. A negative control group in the experiment was a 0.1% DMSO treated group (normal group) and a copper overexposed group (4 μM CuSO4), and a positive control group was a CP002 treated group; a DPA (penicillamine/D-Penicillamine) treated group; and a TETA (trientine/Trientine) treated group. The DPA and TETA were drugs that have been used as therapeutic agents for Wilson's disease and copper overexposure in the related art. The results of examining the hatching rate were illustrated in FIG. 9.

[2] = test system: myelinated cells in the nervous system of zebrafish embryos under copper overexposure; experiment: Myelination defect of cranial ganglia in copper overexposure nervous system model (fluorescence microscopy); conditions: 6 days of drug treatment; for subjects expressing the fluorescent protein (cranial ganglia): with copper, concentration not given
Procedure: The development process of fertilized eggs obtained by mating male and female wild-type zebrafish was safely maintained in an incubator (28.5° C.). At 24 hours after fertilization, normally grown embryos were dispensed into a 24-well plate by 10 subjects and maintained under copper overexposure conditions. To examine the developmental defects of myelinated cells in the nervous system due to copper overexposure and a therapeutic effect of a multi-copper oxidase peptide, CP002S (10 μM) was treated. After 6 days of drug treatment, the subjects were anesthetized with tricaine and placed in 3% methylcellulose. The myelination defect of cranial ganglia (Cg) was observed through fluorescence microscopy, and fluorescent proteins were divided into a normal and a defect according to an expression level. A negative control group in the experiment was a 0.1% DMSO treated group (normal group) and a copper overexposed group, and a positive control group was a DPA (penicillamine/D-Penicillamine) treated group; and a TETA (trientine/Trientine) treated group. The results observed with a fluorescence microscope were illustrated in FIG. 10A, and the results of analyzing the therapeutic effect based on the fluorescence microscope observation results were illustrated in FIG. 10B.

[3] = test system: zebrafish embryos under copper overexposure conditions; experiment: Cardiotoxicity (heart rate) in copper-overexposed nervous system model
Procedure: The development process of fertilized eggs obtained by mating male and female wild-type zebrafish was safely maintained in an incubator (28.5° C.). At 24 hours after fertilization, normally grown embryos were dispensed into a 24-well plate by 20 subjects and maintained under copper overexposure conditions. On 4.5 days after treatment (5.5 days after fertilization), 7 subjects per group were randomly selected, 3% methylcellulose was put in a hole slide glass, and the heart of each subject was located on the hole slide glass to be observed with the naked eye through a stereoscopic microscope lens and observed under a microscope. The heart rate was measured together with the movement of the atria and the ventricles for 20 seconds for each subject in each group to be converted to a heart rate per minute and the average heart rate for each group was compared through a PRISM (Bonfferroni's Multiple Comparison Test, One-way ANOVA) program. In addition, the heart rate inhibition rate was calculated as follows using an average heart rate of the control group. Heart rate inhibition rate=[(average heart rate by group−average heart rate in control group)×100]/average heart rate in control group […] The results of measuring the heart rate in the copper overexposed model animal were illustrated in FIG. 11A, and the heart rate inhibition rate calculated based on the heart rate measurement results was illustrated in FIG. 11B.

[4] = test system: wild-type zebrafish fertilized eggs; experiment: Developmental toxicity analysis of multi-copper oxidase-derived peptides (number of surviving subjects, viability)
Procedure: The developmental toxicity of CP001 (SEQ ID NO: 3) and CP002 (SEQ ID NO: 4), which were multi-copper oxidase-derived peptides, was analyzed. Specifically, fertilized eggs were obtained by mating wild-type zebrafish. After the obtained fertilized eggs were maintained in an incubator for 24 hours, 7 subjects were dispensed into each well of a 24-well plate. The dispensed subjects were treated with CP001 and CP002 at various concentrations (10, 50, and 100 μM). After treatment with the CP001 and CP002, the number of surviving subjects at 2, 6, 22, and 36 hours was confirmed using a microscope, and the viability was calculated based on the results. The control group of the experiment was treated with 0.1% DMSO. The result of confirming the number of surviving subjects was illustrated in FIG. 5A and the calculation result of the viability was illustrated in FIG. 5B.
The experiment was performed in the same method as described above, and the treatment concentrations of CP001 and CP002 were as follows. • CP001: 1 μM, 4 μM • CP002: 5 μM, 10 μM

[5] = test system: wild-type zebrafish embryos; experiment: Abnormal blood deposition in tissue by hematological staining after ceruloplasmin mRNA injection; conditions: 180 pg or 350 pg mRNA injected into embryos at 1 to 4 cell stages; 48 hours after injection; compared to normal group
Procedure: Specifically, the ceruloplasmin gene (SEQ ID NO: 1) derived from Octopus minor obtained in Example 1 was treated with restriction enzymes Cla 1 and Xho 1, and inserted into a pCS2+ expression vector. A restriction enzyme Sac II was treated to the pCS2+ expression vector into which the ceruloplasmin gene was inserted, to prepare linear DNA. An mRNA using the linear DNA as a template was synthesized by an in vitro transcription (Sp6, Invitrogen) method.
After obtaining fertilized eggs by mating wild-type zebrafish, embryos at 1 to 4 cell stages were arranged on an injection plate. After loading the synthesized ceruloplasmin mRNA in a microglass tube with a microloder tip, a predetermined concentration (180 pg or 350 pg) thereof was injected into the embryo using a microinjector, a picopump, and a microscope. Subjects injected with the ceruloplasmin mRNA were cultured in an incubator, and after 48 hours of injection, dark-treated with a hematological staining reagent (o-dianisidine (0.6 mg/ml), 0.01 M sodium acetate (pH 4.5), 0.65% H2O2, 40% ethanol) for 30 minutes, and then washed. After washing, a fixing solution (4% paraformaldehyde) was treated to the subject injected with the ceruloplasmin mRNA, and reacted for at least 1 hour. The subjects injected with the immobilized ceruloplasmin mRNA were placed in 80% glycerol/20% PBS, and photographed under a stereoscopic microscope. […]

[6] = 10 μM, 72 hours after fertilization
[7] = 10 μM, 80 hours after fertilization
[8] = 5 μM, 48 hours after fertilization
[9] = 5 μM, 52 hours after fertilization
[10] = 10 μM, 48 hours after fertilization
[11] = 10 μM, 52 hours after fertilization
[12] = copper overexposure, 5.5 days after fertilization, concentration not given

CC(C)(S)[C@@H](N)C(=O)O [DPA, D-Penicillamine]
hatching rate ([1]; 5 μM, 80 hours after fertilization): 45.4% | hatching rate [1, 6]: 36.3% | hatching rate [1, 7]: 81.8% | subjects expressing the fluorescent protein (cranial ganglia) [2]: 100%

NCCNCCNCCN [TETA, Trientine]
hatching rate [1, 8]: 12.5% | hatching rate [1, 9]: 75% | hatching rate ([1]; 5 μM, 56 hours after fertilization): 100% | hatching rate [1, 10]: 30.7% | hatching rate [1, 11]: 84.6% | hatching rate [1, 6]: 92.3% | hatching rate [1, 7]: 100% | heart rate [3, 12]: 148 beats per minute | heart rate increase compared to the control group (heart rate inhibition rate) [3, 12]: 3.5% | subjects expressing the fluorescent protein (cranial ganglia) [2]: 80%

GKWLLHCHVDDHIIGGMSAIY [CP002]
developmental toxicity ([4]; 10 μM, surviving subjects at 2, 6, 22, 36 hours): developmental toxicity was not shown | developmental toxicity (number of surviving subjects and viability) ([4]; 5 or 10 μM): there was no developmental toxicity | developmental toxicity ([4]; 50 to 100 μM, surviving subjects at 2, 6, 22, 36 hours): developmental toxicity was confirmed | heart rate [3, 12]: 132 beats per minute | heart rate decrease compared to the normal group (heart rate inhibition rate) ([3]; zebrafish, in vivo): 7.7%

GSWLVKCHVHDHYVGGMETLL [CP001]
developmental toxicity ([4]; 5 μM): developmental toxicity was not confirmed | developmental toxicity (number of surviving subjects and viability) ([4]; 1 or 4 μM): there was no developmental toxicity | developmental toxicity ([4]; 10 to 100 μM, surviving subjects at 2, 6, 22, 36 hours): developmental toxicity was confirmed

HCHVDDHIIGGM [CP002S]
hatching rate [1, 8]: 10% | hatching rate [1, 9]: 20% | hatching rate ([1]; 5 μM, 72 hours after fertilization): 100% | hatching rate [1, 10]: 80% | hatching rate [1, 11]: 100% | heart rate ([3]; 10 μM, copper overexposure, 5.5 days after fertilization): 135 beats per minute | subjects with fluorescent protein expression in the cranial ganglia ([2]; 10 μM with copper): all subjects

ceruloplasmin mRNA: mRNA synthesized by in vitro transcription from the Octopus minor ceruloplasmin gene (SEQ ID NO: 1)
blood deposition in tissue (o-dianisidine hematological staining) [5]: abnormal blood deposition in tissue was observed
